Assay results from ChEMBL document CHEMBL2074508, “Functional characterization of the human multidrug transporter, ABCG2, expressed in insect cells” (Biochem Biophys Res Commun, 2001).

These compounds were tested against T1, Broad substrate specificity ATP-binding cassette transporter ABCG2 (Homo sapiens, UniProt Q9UNQ0) (assay: TP_TRANSPORTER: inhibition of ATPase in membrane vesicle from BCRP-expressing Sf9 cells). Conditions: not given.
T1 sequence (Q9UNQ0 whole entry): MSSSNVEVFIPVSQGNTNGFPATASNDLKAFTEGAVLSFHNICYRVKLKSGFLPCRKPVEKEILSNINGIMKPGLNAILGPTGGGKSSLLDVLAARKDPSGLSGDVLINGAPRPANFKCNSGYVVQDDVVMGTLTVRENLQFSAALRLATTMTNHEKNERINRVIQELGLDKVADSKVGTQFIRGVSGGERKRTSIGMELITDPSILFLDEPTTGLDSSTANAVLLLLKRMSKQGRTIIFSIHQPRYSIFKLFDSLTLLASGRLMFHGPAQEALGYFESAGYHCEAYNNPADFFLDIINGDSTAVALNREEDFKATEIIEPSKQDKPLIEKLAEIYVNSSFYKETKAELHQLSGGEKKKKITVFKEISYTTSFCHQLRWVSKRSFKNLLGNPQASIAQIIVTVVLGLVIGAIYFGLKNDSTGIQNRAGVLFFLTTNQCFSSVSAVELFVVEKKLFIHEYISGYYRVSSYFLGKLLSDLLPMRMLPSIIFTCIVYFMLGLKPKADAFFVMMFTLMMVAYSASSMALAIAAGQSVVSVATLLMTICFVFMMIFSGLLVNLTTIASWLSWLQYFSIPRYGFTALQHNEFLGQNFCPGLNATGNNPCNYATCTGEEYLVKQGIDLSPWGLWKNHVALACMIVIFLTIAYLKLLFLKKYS
Assay type: functional, cell membranes
In the case of `COc1ccc2c3c([nH]c2c1)[C@H](C=C(C)C)N1C(=O)[C@@H]2CCCN2C(=O)[C@@H]1C3` [FUMITREMORGIN], the Ki is reported as 1.3 µM.

What follows are compounds tested against T1, Broad substrate specificity ATP-binding cassette transporter ABCG2 (assay: TP_TRANSPORTER: ATP hydrolysis in membrane vesicle from BCRP-expressing Sf9 cells). Conditions: read-out: Kact.
Assay type: functional, cell membranes
`COc1cccc2c1C(=O)c1c(O)c3c(c(O)c1C2=O)C[C@@](O)(C(C)=O)C[C@@H]3O[C@H]1C[C@H](N)[C@H](O)[C@H](C)O1` [DAUNORUBICIN] was tested, and the EC50 was 2.5 µM. Work on `COc1cccc2c1C(=O)c1c(O)c3c(c(O)c1C2=O)C[C@@](O)(C(=O)CO)C[C@@H]3O[C@H]1C[C@H](N)[C@H](O)[C@H](C)O1` [DOXORUBICIN] yielded an EC50 of 5 µM. `O=C1c2c(O)ccc(O)c2C(=O)c2c(NCCNCCO)ccc(NCCNCCO)c21` [MITOXANTRONE] gave an EC50 of 7 µM. Work on `COc1cc2nc(N3CCN(C(=O)c4ccco4)CC3)nc(N)c2cc1OC` [PRAZOSIN] yielded an EC50 of 1 µM. Work on `COC(=O)c1ccccc1-c1c2ccc(=N)cc-2oc2cc(N)ccc12` [RHODAMINE123] yielded an EC50 of 4.5 µM.
